Experimental data reported in PMC6820730, “Leu^8 and Pro^8 oxytocin agonism differs across human, macaque, and marmoset vasopressin 1a receptors” (Scientific Reports, 2019).
Several values for one entry are separate records, joined by “and”; a condition that tells them apart may be missing. Equal values may be shown once. Each block holds one compound with its values, some of them ahead of it. Starred links: 1 amine or outer side, 2 acyl side, 3 side chain; linkers in the order of their positions; H or OH if unused. Positions of bridges follow the written chain, without caps; N, C: chain ends. Non-standard residues stand in square brackets, D forms with d. Residues, ends and D or L forms follow the SMILES beside them. Tyr(3-I) = N[C@@H](Cc1ccc(O)c(I)c1)C(=O)O; X1 = O=C(CC1(S[*:2])CCCCC1)[*:1]; Orn = NCCC[C@H](N)C(=O)O

Assays:
human AVPR1a [1] = molecular target: T1, human AVPR1a (Homo sapiens, UniProt P37288); experiment: Ca2+ mobilization assay, CHO cells expressing human AVPR1a; assay type: cell-based; conditions: human AVPR1a in CHO cells; ± Std. Error, n = 6; read-out: Ca^2+ EC50
T1 sequence (P37288 whole entry): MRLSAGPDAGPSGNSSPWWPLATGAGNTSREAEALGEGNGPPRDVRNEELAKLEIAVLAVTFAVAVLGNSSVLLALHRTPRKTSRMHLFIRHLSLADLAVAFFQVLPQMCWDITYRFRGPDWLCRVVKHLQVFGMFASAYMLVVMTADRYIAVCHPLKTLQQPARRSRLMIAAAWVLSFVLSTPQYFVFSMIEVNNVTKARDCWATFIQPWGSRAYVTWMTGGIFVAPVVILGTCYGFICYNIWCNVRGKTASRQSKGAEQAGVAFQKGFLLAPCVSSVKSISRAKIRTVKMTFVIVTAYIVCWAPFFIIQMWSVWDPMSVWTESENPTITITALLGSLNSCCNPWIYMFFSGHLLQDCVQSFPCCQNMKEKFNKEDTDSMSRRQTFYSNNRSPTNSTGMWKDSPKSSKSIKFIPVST

untransfected CHO cells = experiment: Ca2+ response in untransfected CHO cells; assay type: cell-based, Chinese hamster
[2] = molecular target: human, macaque, and marmoset OXTR; set-up: method as in Taylor et al., 2018; conditions: range over the three species; ref Taylor et al., 2018; read-out: Affinity (Kd) of 125I-OVTA at human, macaque, and marmoset OXTR; cited from earlier work
macaque AVPR1a [3] = experiment: Intact cell saturation binding of 125I-OVTA, macaque AVPR1a CHO clone; conditions: intact CHO cells, 3 h on ice
Experimental: (§1) Intact cell saturation binding assays […] Cells were washed four times with 100 μL ice-cold HGH-BSA, solubilized with 100 μL 0.2 N NaOH, and radioactivity quantified with a gamma counter. We also counted aliquots of the used binding medium (i.e., free ^125I-OVTA) to quantify free radioligand CPM directly, eliminating any concerns about differential depletion of ligand due to differential receptor expression levels across species or time. […] Binding affinity for ^125I-OVTA was determined after correcting for non-specific binding by plotting specific bound/free vs. bound using a single-site binding equation (Graphpad Software Inc., La Jolla, CA). […] Binding affinities for ^125I-OVTA at each primate AVPR1a were calculated by subtracting nonspecific binding and then plotting bound ^125I-OVTA vs. free ^125I-OVTA. Because concentrations of ^125I-OVTA were not identical from experiment to experiment, technical replicates within each experiment (n = 3) were normalized and then corrected using the Cheng-Prusoff equation. […] We averaged across technical replicates (n = 3) within each biological replicate and then averaged across the biological replicates (n = 3), normalized the data, and tested for significant differences of best-fit LogEC50 using one-way ANOVA analyses.

human AVPR1a [4] = molecular target: T1, human AVPR1a; experiment: Intact cell saturation binding of 125I-OVTA, human AVPR1a CHO clone
Experimental: as §1

[5] = molecular target: human, marmoset, and macaque AVPR1a; experiment: Saturation binding of 125I-OVTA, summary over the three primate AVPR1a; conditions: range over the three species
Experimental: Intact cell saturation binding assays […] Cells were washed four times with 100 µL ice-cold HGH-BSA, solubilized with 100 µL 0.2 N NaOH, and radioactivity quantified with a gamma counter. We also counted aliquots of the used binding medium (i.e., free ^125I-OVTA) to quantify free radioligand CPM directly, eliminating any concerns about differential depletion of ligand due to differential receptor expression levels across species or time. […] Binding affinity for ^125I-OVTA was determined after correcting for non-specific binding by plotting specific bound/free vs. bound using a single-site binding equation (Graphpad Software Inc., La Jolla, CA).

marmoset AVPR1a [6] = experiment: Intact cell saturation binding of 125I-OVTA, marmoset AVPR1a CHO clone; conditions: intact CHO cells, 3 h on ice
Experimental: as §1

marmoset AVPR1a [7] = experiment: Intact cell 125I-OVTA competition binding, CHO cells expressing marmoset AVPR1a; conditions: competition with 125I-OVTA in intact CHO cells, 3 h on ice, ± Std. Error, n = 5
Experimental: (§2) Intact cell competition binding assays
(§3) Cells were washed four times with 100 µL ice-cold HGH-BSA, solubilized with 100 µL 0.2 N NaOH, and radioactivity was quantified with a gamma counter. Half-maximal inhibitory concentrations (IC50) were determined by plotting bound ^125I-OVTA vs. competitor concentration. IC50 values were then corrected using the Cheng-Prusoff equation with each receptor’s KD for ^125I-OVTA to produce Ki values for the competing ligands.
(§4) Binding affinities for ^125I-OVTA at each primate AVPR1a were calculated by subtracting nonspecific binding and then plotting bound ^125I-OVTA vs. free ^125I-OVTA. Because concentrations of ^125I-OVTA were not identical from experiment to experiment, technical replicates within each experiment (n = 3) were normalized and then corrected using the Cheng-Prusoff equation. […] Differences in Ca^2+ mobilization potency (EC50) and maximal response to OXT were determined by normalizing OXT-induced (Log M) Ca^2+ responses as a percentage of maximal (100%) AVP-induced Ca^2+ response. […] All best-fit data (Ki, EC50, and Ca^2+ maximal responses) were analyzed using the nonlinear least squares curve-fitting capabilities of GraphPad Prism.

marmoset AVPR1a [8] = experiment: Ca2+ mobilization assay, CHO cells expressing marmoset AVPR1a; assay type: cell-based
Experimental: (§5) Ca^2+ mobilization assays
as §4, with “. […] . Binding” for “Binding”, “response. We averaged across technical replicates (n = 3) within each biological replicate and then averaged across the biological replicates (n = 3), normalized the data, and tested for significant differences of best-fit LogEC50 using one-way ANOVA analyses.” for “response.”, “.” for “All best-fit data (Ki, EC50, and Ca^2+ maximal responses) were analyzed using the nonlinear least squares curve-fitting capabilities of GraphPad Prism.”

macaque AVPR1a [9] = experiment: Ca2+ mobilization assay, CHO cells expressing macaque AVPR1a; assay type: cell-based
Experimental: as §5
as §4, with “. […] . Binding” for “Binding”, “response. We averaged across technical replicates (n = 3) within each biological replicate and then averaged across the biological replicates (n = 3), normalized the data, and tested for significant differences of best-fit LogEC50 using one-way ANOVA analyses.” for “response.”, “.” for “All best-fit data (Ki, EC50, and Ca^2+ maximal responses) were analyzed using the nonlinear least squares curve-fitting capabilities of GraphPad Prism.”

macaque AVPR1a [10] = experiment: Intact cell 125I-OVTA competition binding, CHO cells expressing macaque AVPR1a; conditions: competition with 125I-OVTA in intact CHO cells, 3 h on ice, ± Std. Error, n = 3
Experimental: as §2, §3, §4

EC50 (human AVPR1a [1]): 36.2 ± 0.25 nM
Compound: CC[C@H](C)[C@@H]1NC(=O)[C@H](Cc2ccc(O)cc2)NC(=O)[C@@H](N)CSSC[C@@H](C(=O)N2CCC[C@H]2C(=O)N2CCC[C@H]2C(=O)NCC(N)=O)NC(=O)[C@H](CC(N)=O)NC(=O)[C@H](CCC(N)=O)NC1=O [Pro^8-OXT] (H-CYIQNCPPG-NH2; disulfide 1-6)

Compound: Lysophosphatidic acid [Lysophosphatidic acid (LPA)]
Ca^2+ response (untransfected CHO cells; 10 mM (so in the source)): do show a Ca^2+ response

Bmax (human AVPR1a [4]; human AVPR1a CHO clone, maximal binding of 125I-OVTA): 6.21 fmol/well
Kd (human AVPR1a [4]; human AVPR1a, saturation binding, intact CHO cells, 3 h on ice): 1.17 nM
Kd [5]: 0.331 to 1.17 nM
Compound: CC[C@H](C)[C@@H]1NC(=O)[C@H](Cc2ccc(OC)cc2)NC(=O)CC2(CCCCC2)SSC[C@@H](C(=O)N2CCC[C@H]2C(=O)N[C@@H](CCCN)C(=O)N[C@@H](Cc2ccc(O)c(I)c2)C(N)=O)NC(=O)[C@H](CC(N)=O)NC(=O)[C@H]([C@@H](C)O)NC1=O [^125I-OVTA, ^125I-ornithine vasotocin analog] (Y(Me)ITNCP[Orn][Tyr(3-I)]-NH2; linker N-5 via X1; C-terminus assumed)
Kd [2]: 0.161 to 0.481 nM
Kd (macaque AVPR1a [3]): 0.331 nM
Kd (marmoset AVPR1a [6]): 0.944 nM

Compound: N=C(N)NCCC[C@H](NC(=O)[C@@H]1CCCN1C(=O)[C@@H]1CSSC[C@H](N)C(=O)N[C@@H](Cc2ccc(O)cc2)C(=O)N[C@@H](Cc2ccccc2)C(=O)N[C@@H](CCC(N)=O)C(=O)N[C@@H](CC(N)=O)C(=O)N1)C(=O)NCC(N)=O [AVP, arginine vasopressin]
Ca^2+ response (untransfected CHO cells; AVP 100 mM to 0.1 nM (so in the source)): no Ca^2+ response
Ki (marmoset AVPR1a [7]): 0.9 nM and 0.86 nM
Ca^2+ response of AVP alone, % of the maximal Ca^2+ response (marmoset AVPR1a [8]; 10 nM AVP alone, marmoset AVPR1a): approximately 80%
EC50 (marmoset AVPR1a [8]; marmoset AVPR1a in CHO cells, ± Std. Error, n = 3, read-out: Ca^2+ EC50): 0.05 ± 0.05 nM
EC50 (macaque AVPR1a [9]; macaque AVPR1a in CHO cells, ± Std. Error, n = 3, read-out: Ca^2+ EC50): 0.3 nM and 0.31 nM
Maximal Ca^2+ response, comparison among ligands (macaque AVPR1a [9]; macaque AVPR1a, F(2,6) = 0.23, p = 0.80): equal maximal Ca^2+ responses
Ki (macaque AVPR1a [10]): 1.2 nM and 1.21 nM
